Results: patent US20260070945A1, “MACROCYCLIC IMMUNOMODULATORS” (Bristol-Myers Squibb Company, priority 2022, published 2026)
*1 amine or outer side, *2 acyl side, *3 side chain or, on linkers, in order; H or OH if unused. Where a SMILES comes first, the peptide text is derived from it. Bridges are numbered along the chain shown (N, C = ends). [ ]: non-standard residue; d: D form. The star is where a group is joined. ξ: configuration not given here. Trp(βS-Me) = C[C@@H](c1c[nH]c2ccccc12)[C@H](N)C(=O)O; X4 = NCC[C@H](NC(=O)CNCCNCCN*)C(=O)NCCCCCCCCCCC(=O)O; Phe(3-CF3) = N[C@@H](Cc1cccc(C(F)(F)F)c1)C(=O)O; Phe(4-CONH2) = NC(=O)c1ccc(C[C@H](N)C(=O)O)cc1; Phe(4-COOH) = N[C@@H](Cc1ccc(C(=O)O)cc1)C(=O)O; Bip = N[C@@H](Cc1ccc(-c2ccccc2)cc1)C(=O)O; Phe(3-Me) = Cc1cccc(C[C@H](N)C(=O)O)c1; γGlu = O=C(O)[C@H](CCC(=O)[*:2])N[*:1]; βAsp = O=C(O)[C@H](CC(=O)[*:2])N[*:1]; NH(CH2)12COOH = O=C(O)CCCCCCCCCCCCN*; Val(3-OH) = CC(C)(O)[C@H](N)C(=O)O; hArg = N=C(N)NCCCC[C@H](N)C(=O)O; 4Pal = N[C@@H](Cc1ccncc1)C(=O)O; Cha = N[C@@H](CC1CCCCC1)C(=O)O; Cit = NC(=O)NCCC[C@H](N)C(=O)O; Ile(3ξ) = CCC(C)[C@H](N)C(=O)O; Thr(3ξ) = CC(O)[C@H](N)C(=O)O; Chg = N[C@H](C(=O)O)C1CCCCC1; Phg = N[C@H](C(=O)O)c1ccccc1; Carboxymethyl = O=C(O)C*; NMeA = CN[C@@H](C)C(=O)O; Orn = NCCC[C@H](N)C(=O)O; Aun = NCCCCCCCCCCC(=O)O; Dab = NCC[C@H](N)C(=O)O; Dap = NC[C@H](N)C(=O)O; AEEA = NCCOCCOCC(=O)O; Ac3c = NC1(C(=O)O)CC1; ξV = CC(C)C(N)C(=O)O

biological target: T1, PD-1/PD-L1 interaction (PE-labeled human PD-L1-Ig binding to Jurkat cell line over-expressing human PD-1) (Homo sapiens, UniProt Q15116); test: Jurkat-PD-1 Cell Binding High-Content Screening Assay (CBA); conditions: Jurkat-hPD-1 cells, PE-labeled PD-L1-Ig 20 nM final; read-out: Jurkat HPD1 PDL1 IC50
T1 construct: expressed in transfected cells; host or cells: Jurkat
Method in brief: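 Jurkat cells overexpressing human PD-1 (8×10^3/well, DMEM + 10% FCS) preincubated with compound 2 h at 37 °C, then PE-labelled human PD-L1-Ig (20 nM final) for 1 h. Cells fixed in paraformaldehyde with Hoechst 33342; bound PD-L1 quantified by high-content imaging.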

T1 sequence (Q15116 25-288): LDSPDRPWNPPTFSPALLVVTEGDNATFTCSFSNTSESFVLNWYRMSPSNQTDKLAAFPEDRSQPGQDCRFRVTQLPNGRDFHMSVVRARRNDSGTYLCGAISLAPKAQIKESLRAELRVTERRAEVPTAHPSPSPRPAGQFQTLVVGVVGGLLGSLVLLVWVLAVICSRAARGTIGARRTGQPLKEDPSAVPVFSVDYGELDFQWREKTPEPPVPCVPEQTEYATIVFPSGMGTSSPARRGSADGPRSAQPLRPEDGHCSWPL

| IC50 [nM] | Compound |
| --- | --- |
| 20.5 | Cc1cccc(C[C@@H]2NC(=O)[C@H](CC(=O)O)NC(=O)[C@H](Cc3ccncc3)NC(=O)[C@H](Cc3ccc(OCC(=O)O)cc3)NC(=O)CSC[C@@H](C(=O)N[C@@H](CCN)C(=O)NCCOCCOCC(=O)NCCCCCCCCCCC(=O)O)NC(=O)[C@H]([C@@H](C)O)NC(=O)[C@H](C(C)C)NC(=O)[C@H](CC3CCCCC3)NC(=O)[C@H](CC(N)=O)NC(=O)[C@@H](CC(C)C)NC(=O)[C@H](C)N(C)C(=O)[C@H](Cc3ccc(OCC(=O)O)cc3)NC(=O)[C@H](Cc3ccc(-c4ccccc4)cc3)NC(=O)[C@H](Cc3ccc(OCC(=O)O)cc3)NC2=O)c1 [Example 1357] ({CH2CO}-Y(Carboxymethyl)[4Pal]D[Phe(3-Me)]Y(Carboxymethyl)[Bip]Y(Carboxymethyl)[NMeA][dL]N[Cha]VTC[Dab][AEEA][Aun]-OH; thioether N-14) |
| 27.9 | Cc1cccc(C[C@@H]2NC(=O)[C@H](CC(=O)O)NC(=O)[C@H](Cc3ccc(OCC(=O)O)cc3)NC(=O)[C@H](CN)NC(=O)CSC[C@@H](C(=O)NCCNCCNCC(=O)N[C@@H](CCN)C(=O)NCCCCCCCCCCC(=O)O)NC(=O)[C@H](CO)NC(=O)[C@H](C(C)C)NC(=O)[C@H](CC(C)C)NC(=O)[C@H](CC(N)=O)NC(=O)[C@@H](CC(C)C)NC(=O)[C@H](C)N(C)C(=O)[C@H](C(C)C)NC(=O)[C@H](Cc3ccc(-c4ccccc4)cc3)NC(=O)[C@H](CC(C)C)NC2=O)c1 [Example 1063] ({CH2CO}-[Dap]Y(Carboxymethyl)D[Phe(3-Me)]L[Bip]V[NMeA][dL]NLVSC-X4; thioether N-14) |
| 8.5 | CCC(C)[C@@H]1NC(=O)[C@H](Cc2ccc(-c3ccccc3)cc2)NC(=O)[C@H](C(C)C)NC(=O)[C@H](Cc2c[nH]c3ccccc23)NC(=O)[C@H](CC(=O)O)NC(=O)[C@H](Cc2ccc(OCC(=O)O)cc2)NC(=O)[C@H](Cc2ccc(OCC(=O)O)cc2)NC(=O)CSC[C@@H](C(=O)N[C@H](CC(N)=O)C(=O)NCCCCCCCCCCC(=O)O)NC(=O)[C@H](CCCNC(N)=O)NC(=O)[C@H](C(C)C)NC(=O)[C@H](CC2CCCCC2)NC(=O)[C@H](CCN)NC(=O)[C@@H](CC(C)C)NC(=O)[C@H](C)N(C)C1=O (stereo partly drawn) [Example 2297] ({CH2CO}-Y(Carboxymethyl)Y(Carboxymethyl)DWV[Bip][Ile(3ξ)][NMeA][dL][Dab][Cha]V[Cit]C[dN][Aun]-OH; thioether N-14) |
| 40.3 | CC(C)C[C@@H]1NC(=O)[C@H]([C@@H](C)c2c[nH]c3ccccc23)NC(=O)[C@H](CC(=O)O)NC(=O)[C@H](Cc2ccc(OCC(=O)O)cc2)NC(=O)[C@H](Cc2ccc(OCC(=O)O)cc2)NC(=O)CSC[C@@H](C(=O)NC2(C(=O)NCCOCCOCC(=O)NCCCCCCCCCCC(=O)O)CC2)NC(=O)[C@H](CCC(N)=O)NC(=O)[C@H](C(C)C)NC(=O)[C@H](CC2CCCCC2)NC(=O)[C@H](CCN)NC(=O)[C@@H](CC(C)C)NC(=O)[C@H](C)N(C)C(=O)[C@H](C(C)C)NC(=O)[C@H](Cc2ccc(-c3ccccc3)cc2)NC1=O [Example 1272] ({CH2CO}-Y(Carboxymethyl)Y(Carboxymethyl)D[Trp(βS-Me)]L[Bip]V[NMeA][dL][Dab][Cha]VQC[Ac3c][AEEA][Aun]-OH; thioether N-14) |
| 17.4 | Cc1cccc(C[C@@H]2NC(=O)[C@H](CC(=O)O)NC(=O)[C@H](Cc3ccc(C(N)=O)cc3)NC(=O)[C@H](C(C)O)NC(=O)CSC[C@@H](C(=O)N[C@@H](CCN)C(=O)NCCOCCOCC(=O)NCCCCCCCCCCC(=O)O)NC(=O)[C@H](CCC(=O)O)NC(=O)[C@H](C(C)C)NC(=O)[C@H](CC3CCCCC3)NC(=O)[C@H](CCN)NC(=O)[C@@H](CC(C)C)NC(=O)[C@H](C)N(C)C(=O)[C@H](Cc3ccc(OCC(=O)O)cc3)NC(=O)[C@H](Cc3ccc(-c4ccccc4)cc3)NC(=O)[C@H](Cc3ccc(C(=O)O)cc3)NC2=O)c1 (stereo partly drawn) [Example 2480] ({CH2CO}-[Thr(3ξ)][Phe(4-CONH2)]D[Phe(3-Me)][Phe(4-COOH)][Bip]Y(Carboxymethyl)[NMeA][dL][Dab][Cha]VEC[Dab][AEEA][Aun]-OH; thioether N-14) |
| 21 | CC(C)C[C@H]1NC(=O)[C@H](C)N(C)C(=O)[C@H](C(C)C)NC(=O)[C@H](Cc2ccc(-c3ccccc3)cc2)NC(=O)[C@H](C2CCCCC2)NC(=O)[C@H](Cc2c[nH]c3ccccc23)NC(=O)[C@H](CC(=O)O)NC(=O)[C@H](CCCCNC(=N)N)NC(=O)[C@H](Cc2ccc(OCC(=O)O)cc2)NC(=O)CSC[C@@H](C(=O)N[C@@H](CCCCN)C(=O)NCCOCCOCC(=O)NCCCCCCCCCCC(=O)O)NC(=O)[C@H](CO)NC(=O)[C@H](C(C)C)NC(=O)[C@H](CC2CCCCC2)NC(=O)[C@H](CC(=O)O)NC1=O [Example 2093] ({CH2CO}-Y(Carboxymethyl)[hArg]DW[Chg][Bip]V[NMeA][dL]D[Cha]VSCK[AEEA][Aun]-OH; thioether N-14) |
| 11 | Cc1cccc(C[C@@H]2NC(=O)[C@H](CC(=O)O)NC(=O)[C@H](Cc3ccc(OCC(=O)O)cc3)NC(=O)[C@H](CC(N)=O)NC(=O)CSC[C@@H](C(=O)NCCCCCCCCCCC(=O)O)NC(=O)[C@H](CCCNC(N)=O)NC(=O)[C@H](C(C)C)NC(=O)[C@H](CC3CCCCC3)NC(=O)[C@H](CCN)NC(=O)[C@@H](CC(C)C)NC(=O)[C@H](C)N(C)C(=O)C(C(C)C)NC(=O)[C@H](Cc3ccc(-c4ccccc4)cc3)NC(=O)[C@H](CC(C)C)NC2=O)c1 (stereo partly drawn) [Example 2248] ({CH2CO}-NY(Carboxymethyl)D[Phe(3-Me)]L[Bip][ξV][NMeA][dL][Dab][Cha]V[Cit]C[Aun]-OH; thioether N-14) |
| 17.6 | CC(C)C[C@@H]1NC(=O)[C@H](Cc2c[nH]c3ccccc23)NC(=O)[C@H](CC(=O)O)NC(=O)[C@H](Cc2ccc(O)cc2)NC(=O)[C@H](Cc2ccncc2)NC(=O)CSC[C@@H](C(=O)NCCOCCOCC(=O)N[C@@H](CCCN)C(=O)NCCCCCCCCCCC(=O)O)NC(=O)[C@H](CCCN)NC(=O)[C@H](C(C)C)NC(=O)[C@H](CC2CCCCC2)NC(=O)[C@H](CCN)NC(=O)[C@@H](CC(C)C)NC(=O)[C@H](C)N(C)C(=O)[C@H](C(C)C)NC(=O)[C@H](Cc2ccc(-c3ccccc3)cc2)NC1=O [Example 2163] ({CH2CO}-[4Pal]YDWL[Bip]V[NMeA][dL][Dab][Cha]V[Orn]C[AEEA][Orn][Aun]-OH; thioether N-14) |
| 60.6 | COC[C@@H]1NC(=O)CSC[C@@H](C(=O)N[C@@H](CCN)C(=O)NCCOCCOCC(=O)N[C@@H](CCC(=O)NCCOCCOCC(=O)NCCCCCCCCCCCCC(=O)O)C(=O)O)NC(=O)[C@H](CCC(=O)O)NC(=O)[C@H](C(C)C)NC(=O)[C@H](CC2CCCCC2)NC(=O)[C@H](CCN)NC(=O)[C@@H](CC(C)C)NC(=O)[C@H](C)N(C)C(=O)[C@H](Cc2ccc(C(=O)O)cc2)NC(=O)[C@H](Cc2ccc(-c3ccccc3)cc2)NC(=O)[C@H](Cc2ccc(C(=O)O)cc2)NC(=O)[C@H](Cc2cccc(C(F)(F)F)c2)NC(=O)[C@H](CC(=O)O)NC(=O)[C@H](Cc2ccc(OCC(=O)O)cc2)NC1=O [Example 1169] ({CH2CO}-S(Me)Y(Carboxymethyl)D[Phe(3-CF3)][Phe(4-COOH)][Bip][Phe(4-COOH)][NMeA][dL][Dab][Cha]VEC[Dab][AEEA][γGlu][AEEA]-{NH(CH2)12COOH}; thioether N-14) |
| 96.9 | Cc1cccc(C[C@@H]2NC(=O)[C@H](CC(=O)O)NC(=O)[C@H](Cc3ccc(C(=O)O)cc3)NC(=O)[C@H](CCN)NC(=O)CSC[C@@H](C(=O)N[C@@H](CCN)C(=O)NCCCCCCCCCCC(=O)O)NC(=O)[C@H](CO)NC(=O)[C@H](C(C)(C)O)NC(=O)[C@H](CC3CCCCC3)NC(=O)[C@H](CCN)NC(=O)[C@@H](CC(C)C)NC(=O)[C@H](C)N(C)C(=O)[C@H](Cc3ccc(OCC(=O)O)cc3)NC(=O)[C@H](Cc3ccc(-c4ccccc4)cc3)NC(=O)[C@H](c3ccccc3)NC2=O)c1 [Example 1292] ({CH2CO}-[Dab][Phe(4-COOH)]D[Phe(3-Me)][Phg][Bip]Y(Carboxymethyl)[NMeA][dL][Dab][Cha][Val(3-OH)]SC[Dab][Aun]-OH; thioether N-14) |
| 21 | CC(C)C[C@@H]1NC(=O)[C@H](Cc2c[nH]c3ccccc23)NC(=O)[C@H](CC(=O)O)NC(=O)[C@H](Cc2ccc(OCC(=O)O)cc2)NC(=O)[C@H](CCCCNC(=N)N)NC(=O)CSC[C@@H](C(=O)N[C@@H](CC(N)=O)C(=O)NCCOCCOCC(=O)N[C@@H](CC(=O)NCCCCCCCCCCC(=O)O)C(=O)O)NC(=O)[C@H](CO)NC(=O)[C@H](C(C)C)NC(=O)[C@H](CC(C)C)NC(=O)[C@H](CC(N)=O)NC(=O)[C@@H](CC(C)C)NC(=O)[C@H](C)N(C)C(=O)[C@H](C(C)C)NC(=O)[C@H](Cc2ccc(-c3ccccc3)cc2)NC1=O [Example 2012] ({CH2CO}-[hArg]Y(Carboxymethyl)DWL[Bip]V[NMeA][dL]NLVSCN[AEEA][βAsp][Aun]-OH; thioether N-14) |

same assay, conditions: PE-labeled PD-L1-Ig 20 nM final, Jurkat-hPD-1 cells; read-out: Jurkat HPD1 PDL1 IC50

| IC50 [nM] | Compound |
| --- | --- |
| 13.4 | Cc1cccc(C[C@@H]2NC(=O)[C@H](CC(=O)O)NC(=O)[C@H](Cc3ccc(C(=O)O)cc3)NC(=O)[C@H](CCN)NC(=O)CSC[C@@H](C(=O)N[C@@H](CCN)C(=O)NCCOCCOCC(=O)NCCOCCOCC(=O)NCCCCCCCCCCC(=O)O)NC(=O)[C@H](CCC(=O)O)NC(=O)[C@H](C(C)C)NC(=O)[C@H](CC3CCCCC3)NC(=O)[C@H](CCN)NC(=O)[C@@H](CC(C)C)NC(=O)[C@H](C)N(C)C(=O)[C@H](Cc3ccc(C(=O)O)cc3)NC(=O)[C@H](Cc3ccc(-c4ccccc4)cc3)NC(=O)[C@H](Cc3ccc(C(=O)O)cc3)NC2=O)c1 [Example 2521] ({CH2CO}-[Dab][Phe(4-COOH)]D[Phe(3-Me)][Phe(4-COOH)][Bip][Phe(4-COOH)][NMeA][dL][Dab][Cha]VEC[Dab][AEEA][AEEA][Aun]-OH; thioether N-14) |
